Data from patent US10519108B2, “Inhibitors of retinaldehyde dehydrogenases and methods of use” (The Board of Regents of the University of Oklahoma, priority 2015, dated 2019).

Tests used:
RALDH = RALDH activity in recovering choroid tissue homogenates, atRA synthesis by HPLC; assay type: biochemical; conditions: choroid cytosol fractions, DAR 5-25 μM, NAD 4 mM, all-trans-retinaldehyde 25 μM, 37° C. 30 min
Description: RALDH activity was assessed in choroid tissue homogenates in the presence of DAR (5-25 μM), or vehicle (EtOH) by measuring all-trans-retinoic acid (atRA) synthesis. Choroid cytosol fractions were incubated in the presence of cofactor NAD (4 mM) and all-trans-retinaldehyde (25 μM) at 37° C. for 30 min. Following incubation, retinoids were extracted and quantified using HPLC.

[1] = biological target: T1, aldehyde dehydrogenase 2 (ALDH2) (Homo sapiens, UniProt P05091); test: ALDH2 activity by NADH synthesis, absorbance at 340 nm; assay type: biochemical
T1 sequence (P05091 18-517): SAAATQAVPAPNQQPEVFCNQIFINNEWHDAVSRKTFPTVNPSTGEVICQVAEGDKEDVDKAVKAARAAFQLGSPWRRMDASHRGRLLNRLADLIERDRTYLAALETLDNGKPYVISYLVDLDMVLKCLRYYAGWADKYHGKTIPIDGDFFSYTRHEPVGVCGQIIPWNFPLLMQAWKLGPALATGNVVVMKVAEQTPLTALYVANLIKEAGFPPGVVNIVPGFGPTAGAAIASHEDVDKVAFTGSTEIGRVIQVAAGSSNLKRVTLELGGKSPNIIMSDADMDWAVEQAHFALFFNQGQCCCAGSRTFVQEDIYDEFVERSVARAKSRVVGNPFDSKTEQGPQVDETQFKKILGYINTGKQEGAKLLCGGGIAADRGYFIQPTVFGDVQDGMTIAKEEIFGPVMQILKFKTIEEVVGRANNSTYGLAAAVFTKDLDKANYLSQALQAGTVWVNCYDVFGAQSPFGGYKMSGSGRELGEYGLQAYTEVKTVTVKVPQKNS

RALDH2 = biological target: T2, RALDH2 (Homo sapiens, UniProt O94788); test: RALDH2 activity by NADH synthesis, fluorescence-based NADH sensor; assay type: biochemical
T2 sequence (O94788 1-518): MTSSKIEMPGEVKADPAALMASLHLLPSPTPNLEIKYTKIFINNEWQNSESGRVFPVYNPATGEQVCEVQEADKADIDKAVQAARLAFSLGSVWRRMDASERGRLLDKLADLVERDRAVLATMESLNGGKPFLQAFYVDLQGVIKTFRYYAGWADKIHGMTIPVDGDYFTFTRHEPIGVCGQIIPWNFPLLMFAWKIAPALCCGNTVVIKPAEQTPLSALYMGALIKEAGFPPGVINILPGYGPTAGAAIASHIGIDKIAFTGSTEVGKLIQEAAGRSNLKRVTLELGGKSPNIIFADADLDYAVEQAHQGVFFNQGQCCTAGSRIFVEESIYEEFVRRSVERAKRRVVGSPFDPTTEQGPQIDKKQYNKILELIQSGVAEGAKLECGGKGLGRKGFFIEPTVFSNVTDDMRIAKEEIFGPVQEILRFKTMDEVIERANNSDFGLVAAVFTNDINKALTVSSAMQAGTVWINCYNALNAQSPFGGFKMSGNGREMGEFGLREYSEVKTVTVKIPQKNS

RALDH3 = biological target: T3, RALDH3 (Homo sapiens, UniProt P47895); test: RALDH3 activity by NADH synthesis, fluorescence-based NADH sensor; assay type: biochemical; conditions: in the presence of DAR
T3 sequence (P47895 1-512): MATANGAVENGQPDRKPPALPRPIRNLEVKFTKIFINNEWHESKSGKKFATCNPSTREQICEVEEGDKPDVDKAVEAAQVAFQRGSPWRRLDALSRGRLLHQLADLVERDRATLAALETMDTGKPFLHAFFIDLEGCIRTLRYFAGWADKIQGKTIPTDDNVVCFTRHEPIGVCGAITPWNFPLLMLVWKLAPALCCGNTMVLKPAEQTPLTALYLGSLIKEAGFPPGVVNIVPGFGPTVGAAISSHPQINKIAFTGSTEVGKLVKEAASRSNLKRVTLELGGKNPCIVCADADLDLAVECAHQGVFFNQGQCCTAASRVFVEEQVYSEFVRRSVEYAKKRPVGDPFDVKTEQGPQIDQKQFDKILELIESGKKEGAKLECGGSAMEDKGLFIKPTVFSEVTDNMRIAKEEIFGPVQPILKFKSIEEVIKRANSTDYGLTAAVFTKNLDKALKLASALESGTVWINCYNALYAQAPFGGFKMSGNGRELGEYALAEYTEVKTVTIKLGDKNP

[2] = biological target: T4, retinaldehyde dehydrogenase 1 (RALDH1) (Homo sapiens, UniProt P00352); test: RALDH1 activity by NADH synthesis, fluorescence-based NADH sensor; assay type: biochemical; conditions: in the presence of DAR
T4 sequence (P00352 1-501): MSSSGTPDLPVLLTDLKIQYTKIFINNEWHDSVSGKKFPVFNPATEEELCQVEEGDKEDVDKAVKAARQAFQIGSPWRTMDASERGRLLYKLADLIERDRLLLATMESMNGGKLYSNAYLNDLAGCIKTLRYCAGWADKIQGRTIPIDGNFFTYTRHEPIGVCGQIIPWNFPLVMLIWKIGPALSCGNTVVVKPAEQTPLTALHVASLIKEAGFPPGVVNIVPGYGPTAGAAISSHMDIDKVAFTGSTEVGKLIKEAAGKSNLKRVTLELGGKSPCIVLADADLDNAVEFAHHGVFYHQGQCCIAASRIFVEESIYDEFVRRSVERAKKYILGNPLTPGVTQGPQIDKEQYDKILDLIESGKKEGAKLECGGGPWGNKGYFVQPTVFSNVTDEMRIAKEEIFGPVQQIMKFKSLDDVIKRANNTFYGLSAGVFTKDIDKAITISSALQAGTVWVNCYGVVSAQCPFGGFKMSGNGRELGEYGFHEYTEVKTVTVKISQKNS

spermatogenesis = conditions: cited from earlier work

| Structure (SMILES) | retinoic acid (atRA) synthesis by RALDH (RALDH) | effect on ALDH2 assessed by NADH synthesis [1] | IC50 (RALDH2; NADH synthesis, 95% C.I.=41.0-66.4 nM) [nM] | activity of RALDH2 assessed by NADH synthesis (RALDH2; in the presence of DAR, fluorescence-based NADH sensor) | activity of RALDH3 assessed by NADH synthesis (RALDH3) | activity of RALDH1 assessed by NADH synthesis [2] | inhibition of spermatogenesis (spermatogenesis; human males) | reactions in patients who consumed alcohol (spermatogenesis; human, alcohol consumed while taking compound, due to inhibition of ALDH2) |
| --- | --- | --- | --- | --- | --- | --- | --- | --- |
| CC1=C(/C=C/C(C)=C/C=C/C(C)=C/C(=O)C(Cl)Cl)C(C)(C)CCC1 [DAR, (3E,5E,7E,9E)-1,1-dichloro-4,8-dimethyl-10-(2,6,6-trimethylcyclohex-1-en-1-yl)deca-3,5,7,9-tetraen-2-one] | significantly inhibited | does not significantly inhibit | 52.2 | effectively inhibits | effectively inhibits | effectively inhibits |  |  |
| O=C(NCCCCCCCCNC(=O)C(Cl)Cl)C(Cl)Cl [WIN-18446] |  | non-specific ALDH2 inhibitor |  |  |  |  | potent, reversible inhibitor of spermatogenesis | violent “disulfiram” reactions |
